One molecule from patent US20240366728A1, “Treatment of Diabetes Mellitus” (Carmot Therapeutics Inc., priority 2023, published 2024) can be followed below.

A word on the EC50: it is the concentration that produces a half-maximal response. Usually Emax stands for the greatest response seen or fitted, relative to the assay's reference.

This test addresses T1, human GIPR (Homo sapiens, UniProt P48546).
T1 sequence (P48546 22-466): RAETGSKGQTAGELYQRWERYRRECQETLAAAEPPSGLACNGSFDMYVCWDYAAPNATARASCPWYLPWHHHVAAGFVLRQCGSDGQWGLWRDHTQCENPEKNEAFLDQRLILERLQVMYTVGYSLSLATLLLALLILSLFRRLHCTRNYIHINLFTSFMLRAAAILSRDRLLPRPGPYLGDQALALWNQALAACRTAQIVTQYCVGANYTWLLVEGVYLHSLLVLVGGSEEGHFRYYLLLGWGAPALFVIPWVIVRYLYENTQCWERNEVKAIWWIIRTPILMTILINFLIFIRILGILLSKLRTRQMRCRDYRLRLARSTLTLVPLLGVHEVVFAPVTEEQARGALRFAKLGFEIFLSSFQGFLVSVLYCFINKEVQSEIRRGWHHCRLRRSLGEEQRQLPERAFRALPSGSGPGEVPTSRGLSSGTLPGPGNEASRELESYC
Description: β-arrestin-2 recruitment (NanoBiT), human GIPR. The settings on record: Table 17. It counts as cell-based. The protocol: To measure GLP-1R and GIPR-mediated β-arrestin recruitment, we utilized Promega's NanoBiT® technology or NanoLuc® Binary Technology. The NanoLuc luciferase is split into two subunits, called LgBiT and SmBIT, which are expressed in HEK293 cells as fusion proteins at the C-terminus of GLP-IR or GIPR and the N-terminus of β-arrestin-2. […] The next day, the media was removed and replaced with […] 1:100 dilution of Nano-Glo® Live Cell Substrate in Opti-MEM™ and equilibrated to room temperature for ten minutes. Background luminescence was measured before 10 nL compound was added using an ECHO Acoustic Liquid Handler.
To measure GLP-1R and GIPR-mediated β-arrestin recruitment, Promega's NanoBiT® technology or NanoLuc® Binary Technology were utilized. Both allow for the detection and quantification of protein: protein interactions in live cells (Samms et al., Trends Endocrinol Metab 31:410-21). The NanoLuc luciferase is split into two subunits, called LgBiT and SmBIT, which are expressed in HEK293 cells as fusion proteins at the C-terminus of GLP-1R or GIPR and the N-terminus of β-arrestin-2, respectively. […] Background luminescence was measured before 10 nL compound was added using an ECHO Acoustic Liquid Handler. Luminescence was measured at 1.5-minute intervals for 30 minutes.
(In general: Arrestin recruitment assays detect the binding of arrestin to an activated receptor.)

Consider `CCCCCCCCCCCCCCCC(=O)N[C@@H](CCC(=O)NCCCC[C@H](NC(=O)[C@H](CO)NC(=O)[C@@H]1CCCN1C(=O)[C@@H]1CCCN1C(=O)[C@@H]1CCCN1C(=O)[C@H](C)NC(=O)CNC(=O)[C@H](CO)NC(=O)[C@H](CO)NC(=O)[C@@H]1CCCN1C(=O)CNC(=O)CNC(=O)[C@H](C)NC(=O)[C@H](CC(C)C)NC(=O)[C@H](CC(C)C)NC(=O)[C@H](Cc1c[nH]c2ccccc12)NC(=O)[C@H](CC(N)=O)NC(=O)[C@@H](NC(=O)[C@H](Cc1ccccc1)NC(=O)[C@H](CCC(=O)O)NC(=O)C(C)(C)NC(=O)[C@H](C)NC(=O)[C@H](C)NC(=O)[C@H](CCC(N)=O)NC(=O)[C@H](CCCCN)NC(=O)[C@H](CC(=O)O)NC(=O)[C@H](CC(C)C)NC(=O)[C@H](Cc1ccc(O)cc1)NC(=O)[C@@H](NC(=O)[C@H](CO)NC(=O)[C@H](Cc1ccc(O)cc1)NC(=O)[C@H](CC(=O)O)NC(=O)[C@H](CO)NC(=O)[C@@H](NC(=O)[C@H](Cc1ccccc1)NC(=O)[C@@H](NC(=O)CNC(=O)[C@H](CCC(=O)O)NC(=O)CSCC(=O)NCCN1CCCCC1=O)[C@@H](C)O)[C@@H](C)O)[C@@H](C)CC)C(C)C)C(N)=O)C(=O)O` [CT-868], for which the EC50 (read-out: hGIPR β-arrestin-2 EC50) came to 13 nM. In addition, the Emax (read-out: hGIPR β-arrestin-2 % Emax) is 1%.
